Reference: patent US10398155B2, “Animal feed comprising a combination of mono glycerides” (Proviron Holding N.V., priority 2013, dated 2019)

System: Broiler chicken
Assay: Broiler growth test over 42 days with additives in animal feed or drinking water (AEW, FCR)
Format: in vivo
Settings: for D 0-42 AEW (average final weight of the broilers at day 42): Poor Feed day 0-13 then Rich Feed to day 42, average of 5 pens; for Ranking AEW 42 / Ranking FCR 42: compared to Rich feed standard test = 100%; for D 0-42 FCR (conversion of feed to chicken weight): lower is better
Experimental: Broiler chicken were grown during 42 days, with and without the abovementioned compositions being added to either the animal feed, or the drinking water.
By the end of the test period of 42 days, the final weight of the broiler was determined, this is the AEW (Average End Weight), as well as the degree of conversion of feed to chicken weight, this is the FCR (Feed Conversion Rate). The latter parameter indicates the amount of feed a broiler chicken should eat per kilogram of final weight of the animal. The lower this parameter, the more efficient the chicken has been fed. This parameter is influenced by the way the animal feed is digested by the intestinal tract or metabolism of the chicken, but also by the way the feed offered to the chicken is effectively accepted by the animal. The latter to a large extent is determined by the taste of the feed offered. To the extent the taste of the feed offered is positively acknowledged by the chicken, less feed is removed by the animal; so dependent on the taste of the feed, more or less of the feed is discarded by the chicken.
The tests were performed on groups of each time 20 broilers for each pen.
Each test was repeated on each time five pens, so each test was performed on in total 100 broilers.
Each value represents an average amount of the results obtained for each set of the five pens.
It is then added to the feed as a powdery compound. In practice it is much easier to mix such a powdery composition with the animal feed, as compared to the addition of a fluid to the feed. • The next two columns show the results of the test, expressed as final weight of the animal, in this case a broiler chicken. • The column with the heading D 0-42 AEW denotes the average final weight of the broilers at day 42 (Average End Weight). The higher the value for this parameter, the better. • The column with the title Ranking AEW 42 denotes, expressed as a percentage, the result of the test in terms of AEW, as compared to the standard test, corresponding to a standard value set at 100%. • The last two columns set forth the results of the test, expressed differently, namely as a measure for the conversion of the feed in meat-resp. increase of weight of the animal, as set forth above. • The column with the title D 0-42 FCR denotes the average value of the conversion of feed to weight of the animal. The lower the value for this parameter, the better. The lower the value, the more efficient the conversion of feed into animal meat has been performed. • The column with the heading Ranking FCR 42 denotes, expressed as a percentage, the result of the test with respect to FCR, as compared to the standard test, which has been allocated the value of 100%.
The feed that has been fed to the broilers in the various tests comprises two different embodiments: • a first type of feed is the so-called ‘Poor Feed’: this is a normal, customary feed that is being fed to the broilers, whereby no forced growth and feed conversion is to be expected, and whereby also no particular duty on the intestinal tract of the broilers is imposed. Differently phrased, the broilers have no difficulty in digesting this feed, and the younger broilers grow in a normal path to fully-grown adult animals. • a second type of feed is the so-called ‘Rich Feed’: this is a feed particularly high in energy and proteins, to which a component has been added that results in a more viscous intestine content. The result of the use of this type of feed is that the growth of the broilers is intensified, but it also results in a heavier load on the intestinal tract. So the intestines of the broilers should work harder to fully digest the feed absorbed by the animal. In this case the risk of disturbing the bacterial balance in the intestinal tract is substantially higher. Such an imbalance in bacteria (dysbacteriosis) may be a cause of diseases with resulting adverse effects. […]

[1] = via drinking water, dosage 2.22 Kg/Ton
[2] = TVN 5 mg/KgLW via drinking water, dosage 0.04 Kg/Ton

CCCCCCCCCCCC(=O)OCC(O)CO (centres unmarked) [Comp 1, monolaurin]
D 0-42 AEW (average final weight of the broilers at day 42) (dosage 1.2 Kg/Ton of feed): 2.55 kg
Ranking AEW 42 (dosage 1.2 Kg/Ton of feed): 97%
Ranking FCR 42 (dosage 1.2 Kg/Ton of feed): 104.6%
D 0-42 FCR (conversion of feed to chicken weight) (dosage 1.2 Kg/Ton of feed, day 0-42): 1.74
D 0-42 AEW (average final weight of the broilers at day 42) (dosage 2.4 Kg/Ton of feed): 2.65 kg
Ranking AEW 42 (dosage 2.4 Kg/Ton of feed): 101%
Ranking FCR 42 (dosage 2.4 Kg/Ton of feed): 101.3%
D 0-42 FCR (conversion of feed to chicken weight) (dosage 2.4 Kg/Ton of feed, day 0-42): 1.69

CCCC(=O)OCC(O)CO (centres unmarked) [Comp 4, monobutyrin]
D 0-42 AEW (average final weight of the broilers at day 42) (dosage 2 Kg/Ton of feed): 2.68 kg
Ranking AEW 42 (dosage 2 Kg/Ton of feed): 102%
Ranking FCR 42 (dosage 2 Kg/Ton of feed): 97.9%
D 0-42 FCR (conversion of feed to chicken weight) (dosage 2 Kg/Ton of feed, day 0-42): 1.63
D 0-42 AEW (average final weight of the broilers at day 42) (dosage 4 Kg/Ton of feed): 2.63 kg
Ranking AEW 42 (dosage 4 Kg/Ton of feed): 100%
Ranking FCR 42 (dosage 4 Kg/Ton of feed): 101.9%
D 0-42 FCR (conversion of feed to chicken weight) (dosage 4 Kg/Ton of feed, day 0-42): 1.70
D 0-42 AEW (average final weight of the broilers at day 42) [1]: 2.65 kg
Ranking AEW 42 [1]: 101%
Ranking FCR 42 [1]: 98.6%
D 0-42 FCR (conversion of feed to chicken weight) (via drinking water, dosage 2.22 Kg/Ton, day 0-42): 1.64

CC[C@H]1OC(=O)C[C@@H](OC(C)=O)[C@H](C)[C@@H](O[C@@H]2O[C@H](C)[C@@H](O[C@H]3C[C@@](C)(O)[C@@H](OC(=O)CC(C)C)[C@H](C)O3)[C@H](N(C)C)[C@H]2O)[C@@H](CC=O)C[C@@H](C)C(=O)/C=C/C(C)=C/[C@@H]1CO[C@@H]1O[C@H](C)[C@@H](O)[C@@H](OC)[C@H]1OC [Ref 3, Tylvalosin]
average increase in weight per day of the broilers (Rich Feed with addition of TVN): 66.3 gr
D 0-42 AEW (average final weight of the broilers at day 42) [2]: 2.79 kg
Ranking AEW 42 [2]: 106%
Ranking FCR 42 [2]: 96.6%
Ranking AEW 42 (TVN 5 mg/KgLW via drinking water, dosage 0.04 Kg/Ton, listed as Tylvalosin): 105.53%
D 0-42 FCR (conversion of feed to chicken weight) (TVN 5 mg/KgLW via drinking water, dosage 0.04 Kg/Ton, entire period day 0-42): 1.61
